In patent US10221202B2, “Annelated phenoxyacetamides” (Boehringer Ingelheim International GmbH, priority 2015, dated 2019) one finds IC50, Papp A→B and Papp B→A data, which are given here for nine compounds.

Data set [1] deals with T1, ENaC (Epithelial Sodium Channel) (Mus musculus, UniProt Q61180+Q9WU38+Q9WU39).
T1 construct: Mouse kidney M-1 cells were cultivated in DMEM; endogenous in cells; host or cells: mouse kidney M-1 cells (cortical collecting duct line), no transfection mentioned
T1 sequence (Q61180 1-699): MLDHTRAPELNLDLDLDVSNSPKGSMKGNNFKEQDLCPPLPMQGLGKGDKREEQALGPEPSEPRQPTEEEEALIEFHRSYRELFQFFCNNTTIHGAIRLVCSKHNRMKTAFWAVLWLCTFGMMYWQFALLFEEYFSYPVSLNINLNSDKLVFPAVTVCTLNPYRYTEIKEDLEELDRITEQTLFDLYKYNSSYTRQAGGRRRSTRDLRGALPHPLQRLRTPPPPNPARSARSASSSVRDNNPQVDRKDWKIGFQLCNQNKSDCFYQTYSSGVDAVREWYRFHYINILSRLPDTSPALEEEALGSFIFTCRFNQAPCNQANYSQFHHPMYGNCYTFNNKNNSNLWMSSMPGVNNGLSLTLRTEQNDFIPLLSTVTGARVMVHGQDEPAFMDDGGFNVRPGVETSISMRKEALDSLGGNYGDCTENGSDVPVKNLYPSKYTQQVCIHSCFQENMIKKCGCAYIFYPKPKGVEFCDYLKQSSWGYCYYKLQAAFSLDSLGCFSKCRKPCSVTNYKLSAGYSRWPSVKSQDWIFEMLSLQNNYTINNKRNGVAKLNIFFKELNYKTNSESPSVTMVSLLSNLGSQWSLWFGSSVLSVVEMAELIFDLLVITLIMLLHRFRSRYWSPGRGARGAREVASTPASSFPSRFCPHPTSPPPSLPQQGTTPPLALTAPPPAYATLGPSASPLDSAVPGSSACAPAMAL
T1 sequence (Q9WU38 1-638): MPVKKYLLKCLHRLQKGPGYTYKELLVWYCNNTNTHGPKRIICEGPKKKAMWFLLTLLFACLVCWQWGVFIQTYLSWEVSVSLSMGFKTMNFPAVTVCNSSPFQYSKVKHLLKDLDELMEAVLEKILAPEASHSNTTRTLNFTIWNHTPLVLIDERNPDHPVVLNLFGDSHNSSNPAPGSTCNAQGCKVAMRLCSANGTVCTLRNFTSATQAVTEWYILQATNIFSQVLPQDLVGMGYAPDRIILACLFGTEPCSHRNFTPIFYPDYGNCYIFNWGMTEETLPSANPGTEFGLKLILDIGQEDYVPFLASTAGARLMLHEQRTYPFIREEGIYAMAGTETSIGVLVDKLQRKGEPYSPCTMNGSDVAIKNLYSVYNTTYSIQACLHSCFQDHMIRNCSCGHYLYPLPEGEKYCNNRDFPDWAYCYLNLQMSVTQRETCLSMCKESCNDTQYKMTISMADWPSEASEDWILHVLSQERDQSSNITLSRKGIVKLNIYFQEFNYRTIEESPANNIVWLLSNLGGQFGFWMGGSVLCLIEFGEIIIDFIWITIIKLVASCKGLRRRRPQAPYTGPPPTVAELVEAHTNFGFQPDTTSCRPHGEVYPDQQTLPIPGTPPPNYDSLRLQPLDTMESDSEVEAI
T1 sequence (Q9WU39 1-655): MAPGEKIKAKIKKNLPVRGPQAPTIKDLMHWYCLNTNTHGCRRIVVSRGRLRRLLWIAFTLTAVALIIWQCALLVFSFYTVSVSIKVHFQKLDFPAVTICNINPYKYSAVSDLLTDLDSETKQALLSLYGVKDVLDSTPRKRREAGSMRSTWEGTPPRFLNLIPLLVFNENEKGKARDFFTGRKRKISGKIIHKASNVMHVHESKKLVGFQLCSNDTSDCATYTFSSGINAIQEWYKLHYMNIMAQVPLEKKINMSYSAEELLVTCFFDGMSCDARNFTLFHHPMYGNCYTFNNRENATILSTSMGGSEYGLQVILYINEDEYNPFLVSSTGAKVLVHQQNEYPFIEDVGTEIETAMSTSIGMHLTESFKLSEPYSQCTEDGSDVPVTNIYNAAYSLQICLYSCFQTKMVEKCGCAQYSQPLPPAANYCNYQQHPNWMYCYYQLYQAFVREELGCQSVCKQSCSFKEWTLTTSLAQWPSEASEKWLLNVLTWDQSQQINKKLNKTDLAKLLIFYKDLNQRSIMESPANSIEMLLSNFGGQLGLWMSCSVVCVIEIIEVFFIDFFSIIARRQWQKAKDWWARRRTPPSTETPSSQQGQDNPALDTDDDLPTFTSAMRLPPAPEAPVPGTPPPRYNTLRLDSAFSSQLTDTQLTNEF
Description: Ussing Chamber assay (short circuit current, amiloride sensitive I_SC). Type of data set: cell-based. The settings on record: Mouse kidney M-1 cells, apical application, 37° C. As to the method:
The IC50 values of the example compounds given above were determined in the Ussing Chamber assay. Ussing Chamber: Mouse kidney M-1 cells were cultivated in DMEM containing 5% FCS and 5 μM dexamethasone for 10 to 12 days on polyester transwell filters. Filters were inserted into a teflon-coated well-plate which fit into the ussing chamber system. Prior to measurement the medium of M-1 cells was replaced with Caco-2 transport buffer (Invitrogen, Germany). During measurements, the Ussing chamber temperature was kept at 37° C. Short circuit currents (I_sc) were measured in the voltage-clamp mode with the software package Lab View for data acquisition and analysis. The transepithelial electrical resistance (TEER) was determined by the application of voltage steps of ±5 mV every 5 sec. Compounds were administered at a final concentration of 3 μM or at increasing concentrations (1-3-10 μM) to the apical solution. At the end of each experiment the amiloride sensitive I_SC was measured by adding 3 μM amiloride to the apical compartment. Results are expressed as inhibition in percent of the amiloride effect or as IC50.

Data set [2] can be described thus: Permeability in CALU-3 cells. The data set is classed as in vitro ADME. The settings on record: human, CALU-3 monolayers, pH 7.4, 37° C., 10 μM compound; for Papp A→B at 90 min, 10 μM: apical-to-basal; for Papp B→A at 90 min, 10 μM: basal-to-apical. Here is the method:
Permeability measurements across polarized, confluent CALU-3 cell monolayers grown on permeable filter supports are used to provide information on the potential of a compound to pass the lung epithelium. Apparent permeability coefficients (Papp) of the compounds across the CALU-3 cell monolayers are measured (pH 7.4, 37° C.) in apical-to-basal (AB) and basal-to-apical (BA) transport direction. […] CALU-3 cells (1-2×10^5 cells/1 cm^2 area) are seeded on filter inserts (Costar transwell polycarbonate filters, 0.4 μm pore size) and cultured (for 10-12 days DMEM) until tight monolayers are formed. Compounds of interest are dissolved in appropriate solvent (DMSO, 10 mM stock solution). Stock solutions are diluted with HTP-4 buffer (128.13 mM NaCl, 5.36 mM KCl, 1 mM MgSO4, 1.8 mM CaCl2, 4.17 mM NaHCO3, 1.19 mM Na2HPO4×7H2O, 0.41 mM NaH2PO4×H2O, 15 mM HEPES, 20 mM glucose, 0.25% BSA, pH 7.4) to prepare the transport solutions (10 μM compound, final DMSO<=0.5%). The transport solution (TL) is applied to the apical or basolateral donor side for measuring A-B or B-A permeability (3 filter replicates), respectively. The receiver side contains the same buffer as the donor side. After 30 min of accommodation, samples are collected at the start t0=0 min and at the end of the experiment tn=90 min from the donor and at 0, 30, 60, and 90 min also from the receiver chamber. Volume removed is replenished by HTP-4 buffer. The compound concentration in the samples is measured by HPLC-MS/MS or scintillation counting. The permeability coefficient (Papp) and efflux ratio are calculated according to: Papp [cm/s]=(concentration receiver [nM]*volume receiver [mL]/time interval [sec])*(1/filter area)*(1/donor concentration [nM]).

Usually IC50 stands for the concentration at which inhibition is half-maximal. The term Papp A→B denotes the apparent permeability from the apical to the basolateral side of a cell layer. Higher therefore signals fast passage. As usually defined, the Papp B→A is the apparent permeability from the basolateral to the apical side of a cell layer. The compound `CC[n+]1c(CNC(=O)c2nc(Cl)cnc2N)n(C[C@@H]2CCCO2)c2cc(OCC(=O)N3CC[S+]([O-])CC3)ccc21.O=C([O-])C(F)(F)F` [Example 1.01] displayed an IC50 in data set [1] of 10 nM. For the same compound, in data set [2], the Papp A→B at 90 min, 10 μM turned out to be 0.8 ×10⁻⁶ cm/s and the Papp B→A at 90 min, 10 μM was determined as 0.3 ×10⁻⁶ cm/s.

In turn, `CC[n+]1c(CNC(=O)c2nc(Cl)cnc2N)n(CCO)c2cc(OCC(=O)NCc3ccc(P(C)(C)=O)cc3)ccc21.O=C([O-])C(F)(F)F` [Example 1.02] registered an IC50 in data set [1] of 10 nM. In data set [2], this compound showed a Papp A→B at 90 min, 10 μM of 0.6 ×10⁻⁶ cm/s and a Papp B→A at 90 min, 10 μM of 0.3 ×10⁻⁶ cm/s.

Consider `CCn1c(CNC(=O)c2nc(Cl)cnc2N)[n+](CC2CCOCC2)c2ccc(OCC(=O)N(Cc3nc(C)ccc3[O-])C[C@H](C)O)cc21.O=C(O)C(F)(F)F.O=C(O)C(F)(F)F` [Example 1.03], for which half-maximal inhibition in data set [1] (IC50) required 8 nM. Further, in data set [2], the Papp A→B at 90 min, 10 μM amounted to 0.4 ×10⁻⁶ cm/s and the Papp B→A at 90 min, 10 μM came to 0.1 ×10⁻⁶ cm/s.

As to `CCn1c(CNC(=O)c2nc(Cl)cnc2N)[n+](CC)c2ccc(OCC(=O)NCCCN)cc21.O=C(O)C(F)(F)F.O=C([O-])C(F)(F)F` [Example 2.01], in data set [2], the Papp A→B at 90 min, 10 μM was found to be 0.2 ×10⁻⁶ cm/s and the Papp B→A at 90 min, 10 μM was 0.5 ×10⁻⁶ cm/s.

As to `CCn1c(CNC(=O)c2nc(Cl)cnc2N)[n+](CC)c2ccc(OCC(=O)NCCNC)cc21` [Example 2.02], the IC50 in data set [1] was determined as 2 nM.

Consider `CCn1c(CNC(=O)c2nc(Cl)cnc2N)[n+](CC)c2ccc(OCC(=O)N3CCC(N)CC3)cc21` [Example 2.03], for which, in data set [1], 1 nM corresponded to half-maximal inhibition (IC50).

As for `CCn1c(CNC(=O)c2nc(Cl)cnc2N)[n+](CC)c2ccc(OCC(=O)NCCOCP(C)(C)=O)cc21.O=C([O-])C(F)(F)F` [Example 2.04], in data set [1], 3 nM corresponded to half-maximal inhibition (IC50). Also, in data set [2], the Papp A→B at 90 min, 10 μM is under 0.7 ×10⁻⁶ cm/s and the Papp B→A at 90 min, 10 μM came to 0.4 ×10⁻⁶ cm/s.

Turning to `CCn1c(CNC(=O)c2nc(Cl)cnc2N)[n+](CC)c2ccc(OCC(=O)N(Cc3nc(C)ccc3O)C[C@H](C)O)cc21.O=C([O-])C(F)(F)F` [Example 2.05], the IC50 in data set [1] is 3 nM. In data set [2], this compound gave a Papp A→B at 90 min, 10 μM of 0.4 ×10⁻⁶ cm/s and a Papp B→A at 90 min, 10 μM of 0.1 ×10⁻⁶ cm/s.

As for `CCn1c(CNC(=O)c2nc(Cl)cnc2N)[n+](CC)c2ccc(OCC(=O)NCCN(C)C)cc21.O=C[O-]` [Example 2.06], in data set [1], the IC50 amounted to 1 nM. In data set [2], this compound gave a Papp A→B at 90 min, 10 μM of under 1 ×10⁻⁶ cm/s and an apparent permeability from basolateral to apical (Papp B→A) at 90 min, 10 μM of 0.2 ×10⁻⁶ cm/s.
